Data as given in ChEMBL document CHEMBL1201862, “PubChem BioAssay data set” (2004).
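48-hour exposure; five concentrations; linearly interpolated endpoints. GI50 = concentration required for 50% inhibition of growth.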 Active and inactive are the calls of the source. No stated cut-off is given here; in the data, active = GI50 up to about 1.1 µM and inactive = higher. Square brackets hold non-standard residues; d marks the D form. Peptide text beside a SMILES is read from it.

Experiments:
Test in all cases: inhibition of tumour cell growth, NCI panel, 48 h
SF-539 = test system: SF-539
TK-10 = test system: TK-10
OVCAR-5 = test system: OVCAR-5
UACC-62 = test system: UACC-62
HOP-92 = test system: HOP-92
MDA-MB-435 = test system: MDA-MB-435
EKVX = test system: EKVX
MDA-MB-231 = test system: MDA-MB-231
SK-OV-3 = test system: SK-OV-3
OVCAR-3 = test system: OVCAR-3
COLO 205 = test system: COLO 205
UACC-257 = test system: UACC-257
SR = test system: SR
M14 = test system: M14
NCI/ADR-RES = test system: NCI/ADR-RES
LOX IMVI = test system: LOX IMVI
HCT-116 = test system: HCT-116
786-0 = test system: 786-0
SNB-19 = test system: SNB-19
SNB-75 = test system: SNB-75

Measured: GI50

COc1ccc(C(=O)/C=C2\Nc3cccnc3N\C2=C/C(=O)c2ccc(OC)cc2)cc1
inactive: SF-539 12.5 µM | TK-10 13.2 µM | OVCAR-5 42.3 µM | UACC-62 17.3 µM | HOP-92 53.1 µM | MDA-MB-435 20.3 µM | EKVX 20.8 µM | MDA-MB-231 13.5 µM | SK-OV-3 13 µM | OVCAR-3 14.8 µM | COLO 205 60.5 µM | UACC-257 26.7 µM | SR 16.1 µM | M14 20.9 µM | NCI/ADR-RES 17.4 µM | LOX IMVI 13.9 µM | HCT-116 15.2 µM | 786-0 2.17 µM | SNB-19 18.7 µM

NNC(=O)CC(=O)Nc1ccc(C(=O)O)cc1
inactive: SNB-75 > 100 µM | SF-539 > 100 µM | TK-10 > 100 µM | OVCAR-5 > 100 µM | UACC-62 > 100 µM | HOP-92 > 100 µM | MDA-MB-435 > 100 µM | EKVX > 100 µM | MDA-MB-231 > 100 µM | SK-OV-3 > 100 µM | OVCAR-3 > 100 µM | COLO 205 > 100 µM | UACC-257 > 100 µM | SR > 100 µM | NCI/ADR-RES > 100 µM | LOX IMVI > 100 µM | HCT-116 > 100 µM | 786-0 > 100 µM | SNB-19 > 100 µM

COC(=O)/C=C/c1cnc2c(c1)oc(=O)n2C
inactive: SNB-75 > 100 µM | SF-539 > 100 µM | TK-10 > 100 µM | OVCAR-5 > 100 µM | UACC-62 > 100 µM | HOP-92 > 100 µM | MDA-MB-435 > 100 µM | EKVX > 100 µM | MDA-MB-231 > 100 µM | SK-OV-3 > 100 µM | OVCAR-3 > 100 µM | COLO 205 > 100 µM | UACC-257 > 100 µM | SR > 100 µM | M14 > 100 µM | NCI/ADR-RES > 100 µM | LOX IMVI > 100 µM | HCT-116 > 100 µM | 786-0 > 100 µM | SNB-19 > 100 µM

N=C(N)NCCC[C@H]1NC(=O)[C@@H](CCC(=O)O)NC(=O)[C@@H](CC(=O)O)NC(=O)[C@@H](CCC(=O)O)NC(=O)[C@H](Cc2c[nH]c3ccccc23)NC1=O (cyclo(W[dE][dD][dE][dR]))
inactive: SF-539 > 7.5 µM | TK-10 > 7.5 µM | OVCAR-5 > 7.5 µM | UACC-62 > 7.5 µM | HOP-92 > 7.5 µM | MDA-MB-435 > 7.5 µM | EKVX > 7.5 µM | MDA-MB-231 > 7.5 µM | SK-OV-3 > 7.5 µM | OVCAR-3 > 7.5 µM | COLO 205 > 7.5 µM | UACC-257 > 7.5 µM | SR > 7.5 µM | M14 > 7.5 µM | NCI/ADR-RES > 7.5 µM | LOX IMVI > 7.5 µM | HCT-116 > 7.5 µM | 786-0 > 7.5 µM | SNB-19 > 7.5 µM

COc1ccccc1N1C(=O)/C(=C\c2cc(OC)c(OC)c(OC)c2)S(=O)(=O)C1c1ccccc1 (stereo not given)
inactive: SF-539 25.5 µM | TK-10 > 100 µM | UACC-62 29.9 µM | HOP-92 33.3 µM | MDA-MB-435 16 µM | MDA-MB-231 52.6 µM | SK-OV-3 20.6 µM | OVCAR-3 18.2 µM | COLO 205 26.9 µM | UACC-257 70.1 µM | SR 23.7 µM | M14 31 µM | NCI/ADR-RES 22.2 µM | LOX IMVI 29.4 µM | HCT-116 23.8 µM | 786-0 54.7 µM | SNB-19 32.6 µM

CC(O)c1c2c(cc3c1CC1(C3)Cc3cc4c(c(C(C)O)c3C1)CCC4)CCC2 (stereo not given)
inactive: SF-539 22.4 µM | TK-10 27.7 µM | OVCAR-5 22.5 µM | UACC-62 19.3 µM | HOP-92 15.3 µM | MDA-MB-435 15.8 µM | EKVX 27.9 µM | MDA-MB-231 16.8 µM | SK-OV-3 23.2 µM | OVCAR-3 12.4 µM | COLO 205 13.4 µM | UACC-257 13.9 µM | SR 8.38 µM | M14 18.6 µM | NCI/ADR-RES 19.1 µM | LOX IMVI 17.5 µM | HCT-116 12.1 µM | 786-0 14.8 µM

COC(=O)c1c(O)ccc2c1c1c(n2CCc2ccccc2)C(=O)c2ccccc2C1
inactive: SNB-75 26.4 µM | SF-539 24.8 µM | TK-10 34.3 µM | UACC-62 14.4 µM | HOP-92 10.9 µM | MDA-MB-435 18.2 µM | MDA-MB-231 19.5 µM | SK-OV-3 22.5 µM | OVCAR-3 16.1 µM | COLO 205 14.6 µM | UACC-257 18.5 µM | SR 29.7 µM | M14 22.3 µM | NCI/ADR-RES 19.7 µM | LOX IMVI 30.1 µM | HCT-116 15.3 µM | 786-0 17 µM | SNB-19 24.8 µM

Cc1cn([C@H]2C[C@H](N=[N+]=[N-])[C@@H](CO)O2)c(=O)[nH]c1=O [ZIDOVUDINE]
inactive: TK-10 656 µM | OVCAR-5 > 84.5 µM | UACC-62 239 µM | HOP-92 > 100 µM | MDA-MB-435 565 µM | EKVX > 100 µM | MDA-MB-231 > 100 µM | SK-OV-3 > 100 µM | OVCAR-3 > 100 µM | COLO 205 98.4 µM | UACC-257 > 100 µM | SR 177 µM | M14 > 100 µM | NCI/ADR-RES > 96.4 µM | LOX IMVI > 83 µM | HCT-116 88.5 µM | 786-0 > 100 µM

O=[N+]([O-])/C=C/COCc1cc2c(cc1Br)OCO2
inactive: SNB-75 17.4 µM | SF-539 27.9 µM | TK-10 17.4 µM | OVCAR-5 16.7 µM | UACC-62 16.5 µM | HOP-92 23.2 µM | MDA-MB-435 13.9 µM | EKVX 20.1 µM | MDA-MB-231 18.9 µM | SK-OV-3 43.1 µM | OVCAR-3 16.4 µM | COLO 205 23.1 µM | UACC-257 17.3 µM | SR 23.4 µM | M14 16.3 µM | NCI/ADR-RES 21.1 µM | LOX IMVI 33.8 µM | HCT-116 17.6 µM | 786-0 13.8 µM

O=[N+]([O-])c1ccc(Cl)c(CNc2ncnc3c2ncn3C2CCCCO2)c1 (stereo not given)
inactive: SNB-75 43.6 µM | SF-539 22.8 µM | TK-10 31 µM | OVCAR-5 > 100 µM | UACC-62 22.8 µM | HOP-92 42.3 µM | MDA-MB-435 13.9 µM | EKVX 77.1 µM | MDA-MB-231 32.9 µM | SK-OV-3 36.5 µM | OVCAR-3 34.3 µM | COLO 205 42.2 µM | SR 18.5 µM | M14 28.2 µM | NCI/ADR-RES 25.1 µM | LOX IMVI 56.4 µM | HCT-116 43.2 µM | 786-0 63.8 µM | SNB-19 61.1 µM
